We go through nine compounds from ChEMBL document CHEMBL1154268, “Bioactive guanidine alkaloids from two Caribbean marine sponges” (J Nat Prod, 2009).

Data set [1] is described as follows: Selective index, ratio of TC50 for human HeLa cells to IC50 for Plasmodium falciparum FcB1/Columbia. Type of data set: functional.
Another data set deals with Plasmodium falciparum. In words: Antimalarial activity against chloroquine-resistant Plasmodium falciparum FcB1/Columbia infected in human erythrocytes assessed as inhibition of [G-3H]hypoxanthine incorporation after 24 hrs by scintillation counting. Type of data set: functional, organism-based.
Another data set deals with HeLa. As to the kind of experiment: Cytotoxicity against human HeLa cells by sulforhodamine B assay. Type of data set: functional. The settings on record: read-out: TC50 (the source's name). For orientation: In SRB staining, fixed cells bind dye roughly in proportion to their protein.
The test system of another data set is Vero. As to the kind of experiment: Cytotoxicity against african green monkey Vero cells. Type of data set: cell-based. The settings on record: chlorocebus sabaeus.
For the next data set, the system named is MDA-MB-231. As to the kind of experiment: Growth inhibition of human MDA-MB-231 cells by sulforhodamine B assay. The settings on record: for CC50: read-out: LC50 (the source's name). Type of data set: functional.
Another data set has as its system HT-29. As to the kind of experiment: Growth inhibition of human HT-29 cells by sulforhodamine B assay. Type of data set: functional.
A further data set has as its system A549. As to the kind of experiment: Growth inhibition of human A549 cells by sulforhodamine B assay. Type of data set: functional. The settings on record: for CC50: read-out: LC50 (the source's name).

SMILES strings stand for the structures.

Usually IC50 stands for the point on the concentration scale where inhibition reaches its midpoint. The term GI50 denotes the concentration that inhibits growth by half. By TGI is commonly meant the concentration at which net growth stops.

Take `CCCCCCCCC[C@@H]1C[C@@H]2CC[C@H]3[C@@H](C(=O)OCCCCCCCCC[C@H]4NC(=N)N5CCCC5=C4C(=O)OCCCCNC(=N)N)[C@@H](C)N=C(N1)N23` [BATZELLADINE A]: the “Selectivity Index” value in data set [1] was determined as 9.7. Further, the 50% inhibitory concentration (IC50) in the data set on Plasmodium falciparum worked out at 0.3 µM. The CC50 with HeLa was determined as 2.9 µM.
Take `CC[C@H]1CCCC[C@@]2(C[C@@H]3CC[C@@H]4[C@H](C(=O)OCCCCCCCCCCCCCCCC(=O)N(CCCN)CCCCN)[C@]5(CCC[C@@H](C)O5)NC(=[N+]34)N2)O1.[Cl-]` [PTILOMYCALIN A]: in data set [1], the “Selectivity Index” value was 1.4. The Activity entry in the data set on Vero is “Non-toxic”. Besides, in the data set with Plasmodium falciparum, the concentration for half-maximal inhibition (IC50) was 0.1 µM. The CC50 in the data set on HeLa turned out to be 0.1 µM.
Turning to `CCCCCCC[C@@H]1C[C@@H]2CCc3c(C(=O)O)c(C)nc([n+]32)N1` [CLATHRIADIC ACID], in the data set on MDA-MB-231, the GI50 was found to be 13.5 µM, the TGI is more than 30 µM and the CC50 was more than 30 µM. Besides, in the data set on HT-29, the GI50 is more than 30 µM, the LC50 (concentration killing 50% of cells) is more than 30 µM and the TGI is more than 30 µM. Further, in the data set with A549, the GI50 is more than 30 µM, the TGI was more than 30 µM and the CC50 is more than 30 µM. For the same compound, the IC50 in the data set on Plasmodium falciparum came out at 2.3 µM.
In the data set with HT-29, `CCCCCCC[C@@H]1C[C@@H]2CCc3c(C(=O)OCCCCCCC[C@H]4NC(=N)N5CCCC5=C4C(=O)OCCCCNC(=N)N)c(C)nc([n+]32)N1` [DINORDEHYDROBATZELLADINE B] had a GI50 of 6.2 µM, an LC50 (concentration killing 50% of cells) of more than 14 µM and a TGI of more than 14 µM. For the same compound, in the data set with A549, the concentration for 50% growth inhibition (GI50) turned out to be 7.9 µM, the TGI was more than 14 µM and the CC50 is more than 14 µM. In the data set with Plasmodium falciparum, the IC50 was 0.8 µM.
For `CCCCCCCCC[C@@H]1C[C@@H]2CC[C@H]3[C@@H](C(=O)OC(C)CCCCCCC[C@@H]4C[C@@H]5CC[C@@H]6C[C@H](C)NC(=N4)N65)[C@@H](C)N=C(N1)N23` (some centres undefined) [BATZELLADINE L], in data set [1], the “Selectivity Index” value was less than 1. Besides, the IC50 in the data set with Plasmodium falciparum is 0.3 µM. The CC50 in the data set with HeLa is less than 0.1 µM.
Consider `CCCCCCCCC[C@@H]1C[C@@H]2CCc3c(C(=O)OCCCCNC(=N)N)c(CCCCC)nc([n+]32)N1` [DIHOMODEHYDROBATZELLADINE C], for which, in the data set on MDA-MB-231, it took 6.1 µM to inhibit growth by half (GI50), net growth stopped (TGI) at 9.8 µM and the CC50 was determined as 15.6 µM. Moreover, in the data set with HT-29, the GI50 came out at 3.1 µM, the LC50 (concentration killing 50% of cells) worked out at 8.2 µM and the TGI was 5.1 µM. For the same compound, in the data set on A549, the GI50 was determined as 4.7 µM, the concentration for total growth inhibition (TGI) came to 8.2 µM and the CC50 was determined as 13.1 µM. Moreover, the IC50 in the data set on Plasmodium falciparum was 4.5 µM.
As to `CCCCCCCC[C@@H]1C[C@@H]2CC[C@H]3[C@@H](C(=O)OCCCCCCCCC[C@H]4NC(=N)N5CCCC5=C4C(=O)OCCCCNC(=N)N)[C@@H](C)N=C(N1)N23` [NORBATZELLADINE A], in the data set with MDA-MB-231, the 50% growth inhibitory concentration (GI50) turned out to be 3.8 µM, the TGI worked out at 6.4 µM and the CC50 is 11.4 µM. In the data set on HT-29, this compound yielded a GI50 of 1.6 µM, an LC50 (concentration killing 50% of cells) of 5.7 µM and a TGI of 3.2 µM. For the same compound, in the data set on A549, the GI50 worked out at 2.1 µM, net growth stopped (TGI) at 4.6 µM and the CC50 worked out at 8.6 µM. In addition, the “Selectivity Index” value in data set [1] came to 23.5. Moreover, in the data set on Plasmodium falciparum, the IC50 is 0.2 µM. Further, the CC50 with HeLa amounted to 4.7 µM.
Regarding `CCCCCCCC[C@@H]1C[C@@H]2CC[C@H]3[C@@H](C(=O)OC(C)CCCCCCC[C@@H]4C[C@@H]5CC[C@@H]6C[C@H](C)NC(=N4)N65)[C@@H](C)N=C(N1)N23` (some centres undefined) [NORBATZELLADINE L], in the data set on MDA-MB-231, the GI50 was determined as 0.7 µM, net growth stopped (TGI) at 1.9 µM and the CC50 was determined as 4.8 µM. In the data set with HT-29, this compound yielded a GI50 of 1.2 µM, an LC50 (concentration killing 50% of cells) of 4 µM and a TGI of 2.2 µM. Besides, in the data set with A549, the GI50 worked out at 1.1 µM, the concentration for total growth inhibition (TGI) amounted to 2.1 µM and the CC50 was determined as 4.2 µM. In addition, the half-inhibitory concentration (IC50) in the data set with Plasmodium falciparum came out at 0.4 µM.
`CCCCCCC[C@@H]1C[C@@H]2CC[C@H]3[C@@H](C(=O)OCCCCCCCCC[C@H]4NC(=N)N5CCCC5=C4C(=O)OCCCCNC(=N)N)[C@@H](C)N=C(N1)N23` [DINORBATZELLADINE A]: in the data set on MDA-MB-231, the GI50 turned out to be 3 µM, the TGI was determined as 3.8 µM and the CC50 is 4.6 µM. In the data set with HT-29, this compound yielded a GI50 of 1.9 µM, an LC50 (concentration killing 50% of cells) of 7.6 µM and a concentration for total growth inhibition (TGI) of 4.2 µM. In the data set on A549, it took 4.9 µM to inhibit growth by half (GI50), the TGI is 5.1 µM and the CC50 was 5.4 µM. Further, the half-inhibitory concentration (IC50) with Plasmodium falciparum came to 0.9 µM.
